Measured values taken from patent US9314509B2, “Pharmaceutical compositions of melanocortin receptor ligands” (Ipsen Pharma S.A.S., priority 2009, dated 2016).
Counter-ions that a name gives are not always drawn. Like-named read-outs stand apart in the source and are kept apart here.

Assay: Solubility of pamoate salt, HPLC determination of concentration in supernatant
Type: physicochemical
Experimental: The solubility of pamoate salt of Example 1 was determined by mixing the peptide in water or PBS, followed by HPLC determination of the concentration in the supernatant, and the results are shown in Table 4B.

`CC(=O)N[C@@H](CCCNC(=N)N)C(=O)N[C@H]1CSSC[C@@H](C(N)=O)NC(=O)[C@H](Cc2c[nH]c3ccccc23)NC(=O)[C@H](CCCNC(=N)N)NC(=O)[C@@H](Cc2ccccc2)NC(=O)[C@H](Cc2c[nH]cn2)NC(=O)[C@@H](C)NC1=O` [Pamoate salt of Example 1 with Zn] showed a solubility (PBS, pH 7.4, read-out: Solubility in PBS, pH 7.4) of 120 µg/mL and a solubility (Water, pH 7.0, read-out: Solubility in Water, pH 7.0) of 50 µg/mL.
